Data set [1] relates to dengue virus type 2. The experiment in a line: Antiviral activity against Dengue virus 2 NGC infected in african green monkey Vero cells assessed as inhibition of viral yield after 48 hrs. The class given is functional, organism-based.
The next data set has as its system Junin virus. The data set is described as follows: Antiviral activity against Junin virus IV4454 infected in african green monkey Vero cells assessed as inhibition of viral yield after 48 hrs. The class given is functional, organism-based. To be noted: Mammarenavirus juninense.
The subject of data set [2] is dengue virus type 1. The data set is described as follows: Antiviral activity against Dengue virus 1 Hawaii infected in african green monkey Vero cells assessed as inhibition of viral yield after 48 hrs. The class given is functional, organism-based.
Data set [3] has as its system dengue virus type 3. The data set is described as follows: Antiviral activity against Dengue virus 3 H87 infected in african green monkey Vero cells assessed as inhibition of viral yield after 48 hrs. It is filed as functional, organism-based.
Data set [4] concerns dengue virus type 2. The data set is described as follows: Antiviral activity against Dengue virus 2 infected in BHK21 cells assessed as reduction in virus replication after 72 hrs by renilla luciferase reporter gene assay. It is filed as functional, organism-based. To be noted: BHK-21, 72 h. A general note: A reporter such as luciferase makes a cellular process visible.
The nature of data set [5]: Selectivity index, ratio of CC50 for BHK21 cells to EC50 for Dengue virus 2 infected in BHK21 cells. It is filed as toxicity, cell-based. The settings on record: hamster, read-out: Ratio CC50/EC50.
For data set [6], the system named is dengue virus type 1. The data set is described as follows: Antiviral activity against Dengue virus 1 TH-Sman VR-344 infected in african green monkey Vero cells assessed as reduction in viral titer after 48 hrs by plaque assay. The class given is functional, organism-based. To be noted: TH-Sman VR-344, Vero.
In data set [7] the test system is dengue virus type 3. The experiment in a line: Antiviral activity against Dengue virus 3 H87 VR-1256 infected in african green monkey Vero cells assessed as reduction in viral titer after 48 hrs by plaque assay. The class given is functional, organism-based. The settings on record: H87 VR-1256, Vero.
Another data set deals with dengue virus type 4. The data set is described as follows: Antiviral activity against Dengue virus 4 H241 VR-1257 infected in african green monkey Vero cells assessed as reduction in viral titer after 48 hrs by plaque assay. It is filed as functional, organism-based. To be noted: H241 VR-1257, Vero.
Data set [8] relates to dengue virus type 2. The experiment in a line: Antiviral activity against Dengue virus 2 NGC VR-1255 infected in african green monkey Vero cells assessed as reduction in viral titer after 48 hrs by plaque assay. The class given is functional, organism-based. The settings on record: NGC VR-1255, Vero.
The test system of data set [9] is dengue virus type 2. The experiment in a line: Antiviral activity against Dengue virus 2 NGC infected in human A549 cells assessed as reduction in virus replication after 48 hrs by renilla luciferase reporter gene assay. The class given is functional, organism-based. To be noted: A549, 48 h.
The test system of data set [10] is dengue virus type 2. The experiment in a line: Antiviral activity against Dengue virus 2 NGC infected in human HuH7 cells assessed as reduction in viral titer after 24 hrs. The class given is functional. The settings on record: Huh-7, 24 h.
The subject of data set [11] is dengue virus type 2. The data set is described as follows: Antiviral activity against Dengue virus 2 NGC infected in BHK21 cells after 48 hrs by plaque reduction assay. The class given is functional, organism-based. To be noted: BHK-21, 48 h. On the technique in general: In a plaque reduction assay, fewer plaques than in the control indicate reduced infectivity or spread.

Data set [12] concerns dengue virus type 2. The experiment in a line: Antiviral activity against Dengue virus 2 NGC infected in human HuH7 cells assessed as reduction in virus replication after 48 hrs by renilla luciferase reporter gene assay. The settings on record: Huh-7, 48 h. It is filed as functional, organism-based.
The nature of data set [13]: Cytotoxicity against human HuH7 cells assessed as cell viability after 48 hrs by CellTiter Glo assay. The class given is cell-based, Huh-7.
The target in data set [14] is T1, Genome polyprotein (dengue virus type 2, UniProt P29990). The experiment in a line: Inhibition of RNA unwinding activity of thioredoxin/His6 tagged Dengue virus 2 TSV01 NS3 helicase (171 to 618 residues) expressed in Escherichia coli Rosetta (DE3) using Cy5-MBHA as substrate by fluorescence assay.
Target sequence in this assay (P29990 1476-2093 limits assumed): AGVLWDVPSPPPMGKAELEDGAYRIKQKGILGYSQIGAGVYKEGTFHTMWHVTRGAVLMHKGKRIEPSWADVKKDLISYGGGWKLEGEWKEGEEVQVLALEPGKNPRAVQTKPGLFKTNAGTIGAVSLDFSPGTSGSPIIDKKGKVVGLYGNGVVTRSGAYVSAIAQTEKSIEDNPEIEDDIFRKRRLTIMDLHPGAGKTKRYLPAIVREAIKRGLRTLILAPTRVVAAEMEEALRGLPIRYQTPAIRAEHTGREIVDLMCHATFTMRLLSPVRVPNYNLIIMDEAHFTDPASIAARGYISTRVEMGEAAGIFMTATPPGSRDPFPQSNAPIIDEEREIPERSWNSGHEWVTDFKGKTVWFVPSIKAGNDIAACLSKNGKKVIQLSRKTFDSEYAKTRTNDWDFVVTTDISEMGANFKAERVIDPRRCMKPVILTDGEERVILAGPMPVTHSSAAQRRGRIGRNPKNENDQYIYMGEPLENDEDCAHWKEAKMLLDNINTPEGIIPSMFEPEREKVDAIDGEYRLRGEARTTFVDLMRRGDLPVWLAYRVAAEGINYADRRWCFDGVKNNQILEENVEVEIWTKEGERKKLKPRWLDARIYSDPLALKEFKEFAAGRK
The target in data set [15] is T1, Genome polyprotein. The data set is described as follows: Inhibition of Dengue virus 2 NS3 helicase incubated for 2 mins followed by ATP addition.
Target sequence in this assay (P29990 1476-2093 limits assumed): as above
Data set [16] in a line: Inhibition of Dengue virus guanine N-7 methyltransferase using RNA substrate after 20 mins in presence of [methyl-3H]-AdoMet by microbeta counting analysis.
For the next data set, the target named is Nonstructural protein 5 (Dengue virus, UniProt V5TFZ2). The data set is described as follows: Inhibition of Dengue virus ribose 2'-O methyltransferase using RNA substrate after 20 mins in presence of [methyl-3H]-AdoMet by microbeta counting analysis.
Chain of Nonstructural protein 5 (V5TFZ2 whole entry): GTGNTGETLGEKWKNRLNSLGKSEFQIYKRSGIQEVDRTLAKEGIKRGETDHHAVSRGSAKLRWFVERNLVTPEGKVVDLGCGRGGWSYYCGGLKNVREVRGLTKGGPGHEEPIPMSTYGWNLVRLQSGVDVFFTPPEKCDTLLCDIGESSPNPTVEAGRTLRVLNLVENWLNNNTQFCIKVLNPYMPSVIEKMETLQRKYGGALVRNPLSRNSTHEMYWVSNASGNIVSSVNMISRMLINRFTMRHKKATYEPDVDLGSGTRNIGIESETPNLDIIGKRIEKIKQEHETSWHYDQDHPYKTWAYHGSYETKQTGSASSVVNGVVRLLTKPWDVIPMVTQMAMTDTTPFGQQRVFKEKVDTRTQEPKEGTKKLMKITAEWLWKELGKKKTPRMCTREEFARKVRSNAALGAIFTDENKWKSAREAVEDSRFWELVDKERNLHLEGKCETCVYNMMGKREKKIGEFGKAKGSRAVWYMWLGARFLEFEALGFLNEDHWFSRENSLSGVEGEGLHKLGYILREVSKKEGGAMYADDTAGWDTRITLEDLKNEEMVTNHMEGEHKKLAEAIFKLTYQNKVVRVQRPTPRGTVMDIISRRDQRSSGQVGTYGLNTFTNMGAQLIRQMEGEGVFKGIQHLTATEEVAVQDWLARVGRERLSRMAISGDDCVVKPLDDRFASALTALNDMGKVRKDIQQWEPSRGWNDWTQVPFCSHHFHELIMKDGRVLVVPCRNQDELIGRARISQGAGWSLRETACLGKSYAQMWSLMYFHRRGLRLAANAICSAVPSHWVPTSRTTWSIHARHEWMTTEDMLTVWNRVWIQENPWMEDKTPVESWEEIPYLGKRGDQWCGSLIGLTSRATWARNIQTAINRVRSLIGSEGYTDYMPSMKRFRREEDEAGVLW
The nature of data set [17]: Binding affinity to His-tagged Dengue virus 3 methyltransferase expressed in Escherichia coli Rosetta 2(DE3) by VP-ITC isothermal titration calorimetry. Set-up: species or system dengue virus type 3. In general terms: In ITC the heat of successive injections is recorded.
In data set [18] the test system is dengue virus type 2. The data set is described as follows: Antiviral activity against Dengue virus 2 NGC infected in BHK21 cells after 24 hrs by plaque reduction assay. The class given is functional. To be noted: BHK-21, 24 h.
Data set [19] in a line: Cytotoxicity against BHK21 cells after 1 hr by alamar blue assay. The class given is cell-based, Mesocricetus auratus, BHK-21. The settings on record: hamster.
Data set [20] addresses T1, Genome polyprotein. The data set is described as follows: Inhibition of recombinant Dengue virus type 2 NS2B-NS3 protease expressed in Escherichia coli C41 cells using GRR-AMC as substrate after 15 mins by fluorescence assay.
Target sequence in this assay (P29990 1346-1475 limits assumed): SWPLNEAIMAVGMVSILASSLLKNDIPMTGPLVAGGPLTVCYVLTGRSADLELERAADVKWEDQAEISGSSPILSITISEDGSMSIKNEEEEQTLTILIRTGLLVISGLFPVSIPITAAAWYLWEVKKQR
Target sequence in this assay (P29990 1476-2093 limits assumed): as the sequence (P29990 1476-2093 limits assumed) above
Data set [21] deals with dengue virus type 3. The experiment in a line: Potency index, ratio of S-adenosyl-L-methionine Kd to sinefungin Kd for His-tagged Dengue virus 3 methyltransferase expressed in Escherichia coli Rosetta 2(DE3).

pEC50, pIC50, pKd, pKi: −log10 of the molar value. Where a SMILES comes first, the peptide text is derived from it.

Usually pEC50 stands for the negative decadic logarithm of the EC50, by convention in mol/L. In the case of `C=CCn1c2ccccc2c(=O)c2ccc(Cl)cc21`, the pEC50 was 5.26 to 5.60 in the data set with dengue virus type 2 [1], 5.26 to 5.60 in the data set on Junin virus, 4.80 to 5.08 with dengue virus type 1 [2] and 4.80 to 5.08 in the data set with dengue virus type 3 [3].

With `Cc1cc(N2C(=O)C(O)=C(C(=O)c3ccc(C)o3)C2c2cc(Cl)cc(Cl)c2)no1` (stereo not drawn), in the data set with dengue virus type 2 [4], the negative-log EC50 (pEC50) is 4.44. Moreover, in data set [5], the selectivity ratio worked out at 4.5.

Consider `NC(=O)C1(N2CCCCC2)CCN(C(=O)CSc2nc3ccccc3o2)CC1`, for which the pEC50 in the data set with dengue virus type 1 [6], in the data set with dengue virus type 3 [7], with dengue virus type 4 and with dengue virus type 2 [8] was 6.57 to 6.69 each time. On to `CC[C@H](C)C(=O)O[C@H]1C[C@@H](C)C=C2C=C[C@H](C)[C@H](CC[C@@H]3C[C@@H](O)CC(=O)O3)[C@H]21` [LOVASTATIN], for which the negative logarithm of the EC50 (pEC50) with dengue virus type 2 [9] was 5.06 to 5.74.

What is called EC90 is the point of the concentration-response curve where the effect stands at 90%. For the compound `CN1CCN(CCOc2cc(OC3CCOCC3)c3c(Nc4c(Cl)ccc5c4OCO5)ncnc3c2)CC1` [SARACATINIB], the concentration for an effect of 90% (EC90) with dengue virus type 2 [10] is 12200 nM. Regarding `CC[C@H](C)C(=O)O[C@H]1CCC=C2C=C[C@H](C)[C@H](CC[C@@H]3C[C@@H](O)CC(=O)O3)[C@H]21` [MEVASTATIN], the pEC50 with dengue virus type 2 [9] was 5.06 to 5.74. `OC[C@@H]1[C@@H](O)[C@H](O)[C@@H](O)CN1CCCCC1CCCCC1` showed a pEC50 in the data set with dengue virus type 2 [11] of 5.82.

The term CC50 denotes the concentration that lowers cell viability or growth by half. `C=C1C(=O)OC(CCCCCCCC)C1C(=O)O` (stereo not drawn): the pEC50 with dengue virus type 2 [12] is 5.24. For the same compound, in data set [13], the CC50 at 48 h is > 100000 nM. As for `CCC(C)(C)C(=O)O[C@H]1C[C@@H](C)C=C2C=C[C@H](C)[C@H](CC[C@@H]3C[C@@H](O)CC(=O)O3)[C@H]21` [SIMVASTATIN], the negative logarithm of the EC50 (pEC50) in the data set on dengue virus type 2 [9] was 5.06 to 5.74. With `Cc1nc(Nc2ncc(C(=O)Nc3c(C)cccc3Cl)s2)cc(N2CCN(CCO)CC2)n1` [DASATINIB], the EC90 in the data set with dengue virus type 2 [10] stood at 4700 nM. What is called pIC50 is the IC50 on a negative log10 scale, so that one unit is a factor of ten. In the case of `Cc1ccc2nc(-c3ccc4nc(-c5ccc(NC(=O)c6ccc7nc(-c8ccc(N)cc8)sc7c6)cc5)sc4c3)sc2c1S(=O)(=O)O`, the pIC50 at Genome polyprotein [14] was 5.82; on Genome polyprotein [15], 6.30. In the data set on dengue virus type 2 [4], the negative logarithm of the EC50 (pEC50) is 5.15. Consider `Nc1ncnc2c1ncn2[C@@H]1O[C@H](CSCC[C@H](N)C(=O)O)[C@@H](O)[C@H]1O` [S-ADENOSYLHOMOCYSTEINE], for which the negative logarithm of the IC50 (pIC50) in [16] was 5.75; at Nonstructural protein 5, 6.31.

Turning to `CO[C@@H]1[C@H]2OC(C)(C)O[C@H]2O[C@@H]1C(=O)c1cnc2sc(C(=O)c3ccc(Br)cc3)cn12`, the values for the negative logarithm of the EC50 (pEC50) in the data set with dengue virus type 2 [1] and in the data set on Junin virus were 4.52 and 4.92, respectively. The pKd is the Kd on a negative log10 scale, so that one unit is a factor of ten. Compound `C[S+](CC[C@H](N)C(=O)[O-])C[C@H]1O[C@@H](n2cnc3c(N)ncnc32)[C@H](O)[C@@H]1O` (stereo partly drawn) [ADEMETIONINE] gave a pKd in data set [17] of 6.08.

By IC90 is commonly meant the concentration at which the effect reaches the 90% level. In the data set with dengue virus type 2 [18], `N#C/C(=N\Nc1cccc(Cl)c1)C(=O)c1ccco1` yielded a 90% effect concentration (IC90) of 16900 nM. For the same compound, the half-maximal cytotoxic concentration (CC50) at 1 h in [19] was > 100000 nM. In general, pKi refers to −log10 of the Ki, conventionally taken in molar units. Take `CC(=O)N[C@@H](CCCNC(=N)N)C(=O)N[C@H](C(=O)N[C@@H](CO)C(=O)N[C@@H](CCCCN)C(=O)N[C@@H](CCCCN)C(=O)N[C@@H](CCCNC(=N)N)C(N)=O)[C@@H](C)O` (Ac-RTSKKR-NH2): on Genome polyprotein [20], the pKi was 4.92. Consider `Nc1ncnc2c1ncn2[C@@H]1O[C@H](C[C@@H](N)CC[C@H](N)C(=O)O)[C@@H](O)[C@H]1O` [SINEFUNGIN], for which the pIC50 was 7.52 in [16] and 7.39 on Nonstructural protein 5. Further, in data set [17], the pKd is 6.87. In the data set with dengue virus type 3 [21], the Ratio came to 6.

(Values after ChEMBL document CHEMBL4431301, “The Medicinal Chemistry of Dengue Virus” (J Med Chem, 2016).)
